{
  "source": "patent US12409126B2",
  "about": "“Ginsenoside-containing composition, daily-use chemical and use thereof” (InCipirit Tech (Guangzhou) Co., Ltd., priority 2023, dated 2025)",
  "tested_on": "human epidermal keratinocytes",
  "experiment": "Epidermal keratinocyte proliferation in dermal papilla cell and epidermal keratinocyte double-layer culture system",
  "type": "cell-based",
  "conditions": "0.2 μg/ml, 2 μg/ml, 20 μg/ml, 200 μg/ml",
  "method": "500 μl of human epidermal keratinocytes (30,000 cells/ml) were added to each well of MULTIWELL 24well, followed by the addition of 1.0 μm of cell culture inserts for culture for 1 day. 300 μl of dermal papilla cells (20,000 cells/ml) had been added in the 1.0 μm of cell culture inserts. each 1 μl/well of the Radix et Rhizoma Ginseng extracts 1-7, the positive control (minoxidil sulfate) and the blank control (DMSO) was then added for continued culture for 3 days. After removal of the 1.0 μm of cell culture inserts, 50 μl/well of Cell Counting Kit-8 (Dojindo Laboratories) was added for continued culture for 2 hours, and the cell number was determined using a microplate reader (450 nm, Mix0).",
  "note": "Where a name gives a salt, the structure may show the parent alone.",
  "data": [
    {"smiles": "Nc1cc(N2CCCCC2)nc(N)[n+]1OS(=O)(=O)[O-]", "note": "[Minoxidil sulfate, minoxidil sulfate]", "values": [
      {"measurement": "epidermal keratinocyte proliferation in double-layer culture system", "result": "no effect in promoting keratinocyte proliferation"}
    ]}
  ]
}
